Common to all, as to assay type: functional
For assay [1], the system named is Streptococcus pneumoniae. In words: Antibacterial activity against erythromycin-resistant Streptococcus pneumoniae B1 expressing erm gene by broth microdilution method. For orientation: Dilution methods test growth across graded concentrations, often in twofold steps.
The subject of assay [2] is Streptococcus pneumoniae. In words: Ratio of clarithromycin MIC to compound MIC for erythromycin-resistant Streptococcus pneumoniae A22072 expressing mef gene.
For assay [3], the system named is Streptococcus pneumoniae. In words: Ratio of erythromycin MIC to compound MIC for erythromycin-resistant Streptococcus pneumoniae A22072 expressing mef gene.
Assay [4] has as its system Streptococcus pneumoniae. Put plainly: Antibacterial activity against erythromycin-resistant Streptococcus pneumoniae AB11 expressing erm and mef gene by broth microdilution method.
Assay [5] deals with Streptococcus pneumoniae. In words: Antibacterial activity against erythromycin-resistant Streptococcus pneumoniae A22072 expressing mef gene by broth microdilution method.
Assay [6] relates to Streptococcus pneumoniae. Put plainly: Antibacterial activity against erythromycin-susceptible Streptococcus pneumoniae ATCC 49619 by broth microdilution method.
The test system of assay [7] is Staphylococcus aureus. In words: Antibacterial activity against erythromycin-susceptible Staphylococcus aureus ATCC 25923 by broth microdilution method.
The subject of assay [8] is Streptococcus pneumoniae. Put plainly: Ratio of erythromycin MIC to compound MIC for erythromycin-resistant Streptococcus pneumoniae B1 expressing erm gene.
In assay [9] the test system is Streptococcus pneumoniae. In words: Ratio of clarithromycin MIC to compound MIC for erythromycin-resistant Streptococcus pneumoniae B1 expressing erm gene.
The test system of assay [10] is Streptococcus pneumoniae. In words: Ratio of azithromycin MIC to compound MIC for erythromycin-resistant Streptococcus pneumoniae B1 expressing erm gene.
In assay [11] the test system is Streptococcus pneumoniae. In words: Ratio of clarithromycin MIC to compound MIC for erythromycin-susceptible Streptococcus pneumoniae ATCC 49619.
For assay [12], the system named is Staphylococcus aureus. In words: Ratio of clarithromycin MIC to compound MIC for erythromycin-susceptible Staphylococcus aureus ATCC 25923.

Structures are written as SMILES. In brackets after ≈: the same amount, converted by molar mass.

Regarding `CC[C@H]1OC(=O)[C@H](C)[C@@H](O[C@H]2C[C@@](C)(OC)[C@@H](OC(=O)NNC(=O)c3ccc4[nH]c(-c5ccc([N+](=O)[O-])cc5)nc4c3)[C@H](C)O2)[C@H](C)[C@@H](O[C@@H]2O[C@H](C)C[C@H](N(C)C)[C@H]2O)[C@](C)(OC)C[C@@H](C)C(=O)[C@H](C)[C@@H](O)[C@]1(C)O`, the MIC in [1] was 16 µg/mL (≈ 14.9 µM); in assay [4], 16 µg/mL (≈ 14.9 µM); in [5], 0.03 µg/mL (≈ 0.028 µM); in assay [6] it was 0.25 µg/mL (≈ 0.233 µM); in [7], 1 µg/mL (≈ 0.934 µM). Also, the Ratio in assay [2] worked out at 133; in assay [3], 267.

Consider `CC[C@H]1OC(=O)[C@H](C)[C@@H](O[C@H]2C[C@@](C)(OC)[C@@H](OC(=O)NNC(=O)c3ccc4[nH]c(-c5ccc(C)cc5)nc4c3)[C@H](C)O2)[C@H](C)[C@@H](O[C@@H]2O[C@H](C)C[C@H](N(C)C)[C@H]2O)[C@](C)(OC)C[C@@H](C)C(=O)[C@H](C)[C@@H](O)[C@]1(C)O`, for which the minimal inhibitory concentration (MIC) worked out at 2 µg/mL (≈ 1.92 µM) in [1]; 16 µg/mL (≈ 15.4 µM) in [4]; 0.03 µg/mL (≈ 0.0288 µM) in assay [5]; 0.12 µg/mL (≈ 0.115 µM) in assay [6]; 0.25 µg/mL (≈ 0.24 µM) in assay [7]. In addition, the Ratio is 133 in assay [2]; 64 in [8]; 267 in assay [3]; 64 in [9]; 64 in [10].

In the case of `CC[C@H]1OC(=O)[C@H](C)[C@@H](O[C@H]2C[C@@](C)(OC)[C@@H](OC(=O)NNC(=O)c3ccc4[nH]c(-c5ccccc5OC)nc4c3)[C@H](C)O2)[C@H](C)[C@@H](O[C@@H]2O[C@H](C)C[C@H](N(C)C)[C@H]2O)[C@](C)(OC)C[C@@H](C)C(=O)[C@H](C)[C@@H](O)[C@]1(C)O`, the MIC in [1] was 2 µg/mL (≈ 1.89 µM); in assay [4], 16 µg/mL (≈ 15.1 µM); in [5] it was 0.03 µg/mL (≈ 0.0284 µM); in assay [6], 0.03 µg/mL (≈ 0.0284 µM); in assay [7] it was 0.03 µg/mL (≈ 0.0284 µM). Moreover, the Ratio is listed as 133 in [2]; 4 in assay [11]; 64 in assay [8]; 267 in assay [3]; 64 in assay [9]; 64 in [10]. In addition, the Ratio in assay [12] came out at 4.

Take `CC[C@H]1OC(=O)[C@H](C)[C@@H](O[C@H]2C[C@@](C)(OC)[C@@H](OC(=O)NNC(=O)c3ccc4[nH]c(-c5cccc(OC)c5)nc4c3)[C@H](C)O2)[C@H](C)[C@@H](O[C@@H]2O[C@H](C)C[C@H](N(C)C)[C@H]2O)[C@](C)(OC)C[C@@H](C)C(=O)[C@H](C)[C@@H](O)[C@]1(C)O`: the MIC in assay [1] was determined as 16 µg/mL (≈ 15.1 µM); in [4], 32 µg/mL (≈ 30.3 µM); in assay [5] it was 0.03 µg/mL (≈ 0.0284 µM); in [6], 0.03 µg/mL (≈ 0.0284 µM); in assay [7], 0.12 µg/mL (≈ 0.114 µM). For the same molecule, the figures for the Ratio in assay [2] and in assay [3] were 133 and 267, respectively.

Consider `CC[C@H]1OC(=O)[C@H](C)[C@@H](O[C@H]2C[C@@](C)(OC)[C@@H](OC(=O)NNC(=O)c3ccc4[nH]c(-c5ccc(OC)cc5)nc4c3)[C@H](C)O2)[C@H](C)[C@@H](O[C@@H]2O[C@H](C)C[C@H](N(C)C)[C@H]2O)[C@](C)(OC)C[C@@H](C)C(=O)[C@H](C)[C@@H](O)[C@]1(C)O`, for which the minimal inhibitory concentration (MIC) in [1] stood at 4 µg/mL (≈ 3.79 µM); in [4] it was 16 µg/mL (≈ 15.1 µM); in assay [5], 0.03 µg/mL (≈ 0.0284 µM); in assay [6], 0.12 µg/mL (≈ 0.114 µM); in [7] it was 0.25 µg/mL (≈ 0.237 µM). In addition, the Ratio in [2] was 133; in assay [3] it was 267.

For the molecule `CC[C@H]1OC(=O)[C@H](C)[C@@H](O[C@H]2C[C@@](C)(OC)[C@@H](OC(=O)NNC(=O)c3ccc4[nH]c(-c5ccccc5Cl)nc4c3)[C@H](C)O2)[C@H](C)[C@@H](O[C@@H]2O[C@H](C)C[C@H](N(C)C)[C@H]2O)[C@](C)(OC)C[C@@H](C)C(=O)[C@H](C)[C@@H](O)[C@]1(C)O`, the MIC in assay [1] is 32 µg/mL (≈ 30.2 µM); in assay [4] it was 32 µg/mL (≈ 30.2 µM); in assay [5], 0.03 µg/mL (≈ 0.0283 µM); in assay [6] it was 0.03 µg/mL (≈ 0.0283 µM); in assay [7], 0.06 µg/mL (≈ 0.0566 µM). Besides, the Ratio is listed as 133 in assay [2] and 267 in assay [3].

Regarding `CC[C@H]1OC(=O)[C@H](C)[C@@H](O[C@H]2C[C@@](C)(OC)[C@@H](OC(=O)NNC(=O)c3ccc4[nH]c(-c5ccc(Cl)cc5)nc4c3)[C@H](C)O2)[C@H](C)[C@@H](O[C@@H]2O[C@H](C)C[C@H](N(C)C)[C@H]2O)[C@](C)(OC)C[C@@H](C)C(=O)[C@H](C)[C@@H](O)[C@]1(C)O`, the MIC in [1] amounted to 8 µg/mL (≈ 7.54 µM); in assay [4], 16 µg/mL (≈ 15.1 µM); in assay [5], 0.03 µg/mL (≈ 0.0283 µM); in assay [6], 0.03 µg/mL (≈ 0.0283 µM); in assay [7], 0.5 µg/mL (≈ 0.471 µM). The Ratio was 133 in [2] and 267 in [3].

For orientation: MIC means the lowest concentration found to suppress growth. Higher therefore signals a less susceptible organism.

The record behind these values is ChEMBL document CHEMBL1795320, “Synthesis and antibacterial activity of novel 4″-O-benzimidazolyl clarithromycin derivatives” (2011).
